From patent US20200277373A1, “ANTI-TREM2 ANTIBODIES AND METHODS OF USE THEREOF” (Denali Therapeutics Inc., priority 2017, published 2020)

Key:
Assay type in all cases: cell-based
TREM2 = target: T1, TREM2 (Homo sapiens, UniProt Q9NZC2); test: Liposome stimulation pSyk AlphaLISA, HEK293 overexpressing TREM2 and DAP12; settings: liposomes 30% lipid/70% PC (KLA 10%/90%), fold change over HBSS
T1 construct: expressed in transfected cells
Protocol: (§1) Lipids were purchased from Avanti Polar Lipids (Alabaster, Ala.) or Echelon Biosciences (Salt Lake City, Utah). Each screened lipid was resuspended in chloroform and added at 30 mole percent composition to 70 mole percent phosphatidylcholine (PC; 1,2-dioleoyl-sn-glycero-3-phosphocholine, Avanti Polar Lipids). Kdo2-Lipid A was added at a 10 mole percent composition with 90 mole percent PC. Lipid mixes were dried under nitrogen gas and resuspended in HBSS at a concentration of 4 mg/mL. Mixes were vortexed or briefly sonicated until resuspended, then bath sonicated for 1-5 minutes. Liposomes were used for 1-2 weeks. 3 independent batches of liposomes were used in experiments.
(§2) HEK293 cell lines overexpressing TREM2 and DAP12, mutant TREM2-R47H and DAP12, or DAP12 alone were plated in 96-well PDL-coated plates at a density of 40,000 cells per well and cultured for 36-48 hours until 90-100% confluent.
(§3) Cell culture medium was removed and cells were washed once with 200ul HBSS. Liposomes were diluted in HBSS in concentrations ranging from 0.03125 mg/mL to 2 mg/mL, then 50 μl was added to wells in 2-3 technical replicates per plate. Each plate contained HBSS negative control wells, 100% PC liposome control, 5 μg/mL agonist anti-TREM2 positive control (Abnova; Taiwan; # MAB2056), and 5 μg/mL mouse IgG3 isotype control (R&D Systems; Minneapolis, Minn.; # MAB007). Stimuli were incubated with cells for 5 minutes at 37° C., 5% CO2, liposomes were removed, and plates were frozen at −80° C.
(§4) Cells were lysed for 30 minutes to 1 hour on ice in 50 ul/well Cell Lysis Buffer (Cell Signaling Technology; Danvers, Mass.; #9803) with 1 mM PMSF. AlphaLISA SureFire Ultra p-Syk Tyr525/526 assay kit (PerkinElmer, ALSU-PSYK-A10OK) was used to measure pSyk levels in lysate as per manufacturer protocol. 10 μl lysate was added to 384-well OptiPlates (PerkinElmer; #6007290) and an EnVision Multilabel Plate Reader (PerkinElmer) was used to measure AlphaLISA fluorescence.
(§5) PSyk AlphaLISA fluorescence was converted to a log 2 scale. Fluorescence values from liposomes and controls were each subtracted from average fluorescence values from HBSS stimulated wells on the same plate (log 2(liposome)−log 2(HBSSave)=log 2(signal)). The result was converted back to a standard scale to measure fold change (2^log 2(signal)=fold change). Technical replicate fold changes values were averaged to obtain the fold change over background listed (pSyk FOB). Graphs represent values from independent experiments or individual human donors. Results from the screen on the HEK293 overexpressing cell lines are shown in Table 9 below and in FIG. 8A-8B. HEK293 results showing specificity for TREM2 over DAP12 expressed alone can be used to extrapolate which lipid species are likely acting as TREM2 ligands on human macrophages.

[1] = test system: primary human macrophages; test: Liposome stimulation pSyk AlphaLISA, primary human macrophages; settings: liposomes 30% lipid/70% PC (KLA 10%/90%)
Protocol: as §1
10 mL human blood was obtained from Blood Centers of the Pacific. Monocytes were extracted using RosetteSep Human Monocyte Enrichment Cocktail ([…] Technologies Inc.; Vancouver, BC; #15068) as per manufacturer protocols. Density gradient was performed with Ficoll-Paque Premium (GE Healthcare Life Sciences; Pittsburgh, Pa.; #17-5442-02). Isolated monocytes were resuspended at ˜1-1.3 million cells/mL and cultured for 5-6 days in RPMI, 10% Hyclone Fetal Bovine Serum, and penicillin/streptomycin supplemented with 50 ng/mL human M-CSF (Gibco, # PHC9501) in T175 tissue culture treated flasks. M-CSF was replenished every 2-3 days. Cells were washed once with PBS, 15 mL fresh medium was added, and cells were harvested by scraping. Cells were cultured overnight at a density of 100,000 cells per well on tissue culture treated 96-well plates supplemented with 10-25 ng/mL M-CSF.
as §3, §4, §5

DAP12 alone = target: T2, DAP12 alone (Homo sapiens, UniProt O43914); test: Liposome stimulation pSyk AlphaLISA, HEK293 expressing DAP12 alone; settings: liposomes 30% lipid/70% PC (KLA 10%/90%), fold change over HBSS
T2 construct: expressed in transfected cells
T2 sequence (O43914 22-113): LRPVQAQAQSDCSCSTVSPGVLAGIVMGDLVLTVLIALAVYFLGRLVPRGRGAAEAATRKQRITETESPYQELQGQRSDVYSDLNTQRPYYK
Protocol: as §1, §2, §3, §4, §5

R47H TREM2 mutant = target: T3, R47H TREM2 mutant (Homo sapiens, UniProt Q9NZC2, R47H); test: Liposome stimulation pSyk AlphaLISA, HEK293 overexpressing TREM2-R47H and DAP12; settings: liposomes 30% lipid/70% PC (KLA 10%/90%), fold change over HBSS
T3 construct: expressed in transfected cells
T3 sequence (Q9NZC2 19-230 R47H): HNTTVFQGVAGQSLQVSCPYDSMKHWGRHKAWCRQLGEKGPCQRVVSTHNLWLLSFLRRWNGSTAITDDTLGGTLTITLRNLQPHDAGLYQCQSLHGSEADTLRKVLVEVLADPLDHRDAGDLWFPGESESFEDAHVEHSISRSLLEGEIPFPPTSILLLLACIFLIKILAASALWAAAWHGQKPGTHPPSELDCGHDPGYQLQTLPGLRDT
T3 sequence (O43914 22-113 partner): as the sequence (O43914 22-113) above
Protocol: as §1, §2, §3, §4, §5

T1 sequence (Q9NZC2 19-230): as the sequence (Q9NZC2 19-230 R47H) above, with H29R counted along it
T1 sequence (O43914 22-113 partner): as the sequence (O43914 22-113) above

Compound	Human TREM2 (pSyk FOB) (TREM2) [FOB]	DAP12 alone (pSyk FOB) (DAP12 alone) [FOB]	R47H TREM2 mutant (pSyk FOB) (R47H TREM2 mutant) [FOB]	pSyk FOB [1] [FOB]
CCCCCCCCCCCCCCC[C@@H](O)[C@@H](N)COP(=O)(O)O [Sphinganine-1-phosphate (SalP), Sphinganine-1-phosphate]	3.31	1.34	5.32	1.08
CCCCCCCCCCCCC/C=C/[C@@H](O)[C@@H](N)COP(=O)(O)O [Sphingosine-1-phosphate (SolP), Sphingosine-1-phosphate]	2.42	1.64	3.94	2.10
Ceramide-1-phosphate [Ceramide-1-phosphate (C1P)]	3.89	1.16	4.00	2.28
Dihydrosphingomyelin [Dihydrosphingomyelin (DhSM)]	1.59	1.40	1.93	0.96
Ether phosphatidylcholine [Ether phosphatidylcholine (PCe)]	2.94	1.33	3.97	1.29
Ganglioside GM1	4.94	0.92	4.93	1.52
Lactosylceramide [Lactosylceramide (LacCer)]	1.89	1.27	2.06	1.29
Lysophosphatidic acid [Lysophosphatidic acid (LPA)]	3.69	1.17	3.62	1.82
Lysophosphatidylethanolamine [LysophosphatidyLethanolamine (LPE)]	4.16	1.28	3.58	2.03
Lysophosphatidylglycerol [Lysophosphatidylglycerol (LPG)]	4.83	1.28	3.44	1.64
Lysophosphatidylinositol [Lysophosphatidylinositol (LPI)]	1.12	1.03	0.32	1.61
Lysophosphatidylserine [Lysophosphatidylserine (LPS)]	3.77	1.39	3.88	1.78
N-Acyl-Serine [N-Acyl-Serine (NSer)]	2.59	1.39	3.76	1.66
Palmitic-acid-9-hydroxy-stearic-acid	5.87	1.27	7.31	3.94
Phosphatidylethanol [Phosphatidylethanol (PEtOH)]	3.00	1.57	4.83	1.61
Phosphatidylethanolamine [Phosphatidylethanolamine (PE) or DSPE]	1.49	1.51	2.49	1.53
Phosphatidylglycerol [Phosphatidylglycerol (PG) or DSPG]	2.25	1.40	3.77	1.85
Phosphatidylinositol [Phosphatidylinositol (PI)]	4.31	1.04	2.27	2.09
Phosphatidylserine [Phosphatidylserine (PS)]	2.42	1.27	2.65	2.09
Sphingomyelin [Sphingomyelin (SM)]	1.74	1.40	2.09	1.02
Sulfatide	5.02	1.21	6.34	1.75

The next lines start with results.

Human TREM2 (pSyk FOB) (TREM2) [FOB]	DAP12 alone (pSyk FOB) (DAP12 alone) [FOB]	R47H TREM2 mutant (pSyk FOB) (R47H TREM2 mutant) [FOB]	Compound	pSyk FOB [1] [FOB]
0.67	1.32	0.85	CCCCCCCCCCCCC/C=C/[C@@H](O)[C@@H](N)CO [Sphingosine]	0.96
4.85	1.42	3.04	Bis(monoacylglycero)phosphate [Bis(monoacylglycero)phosphate (BMP)]	2.19
3.79	1.26	3.31	Cardiolipin [Cardiolipin (CL)]	2.50
2.20	1.30	2.21	Ceramide	1.44
4.24	1.14	10.90	Cholesteryl ester [Cholesteryl ester (CE)]	1.62
3.45	1.16	4.65	Galactosylceramide [Galactosylceramide (GalCer)]	1.98
5.82	1.14	6.05	Ganglioside GM3	1.17
0.81	1.26	0.68	Oxidized phosphatidylcholine [Oxidized phosphatidylcholine (oxPC)]	1.25
2.17	1.48	2.72	Phosphatidic acid [Phosphatidic acid (PA)]	2.17
